In ChEMBL document CHEMBL5260833, “An overview of quinazolines: Pharmacological significance and recent developments” (Eur J Med Chem, 2018):

Key:
Homo sapiens [1] = species: Homo sapiens; test: Immunosuppressive activity in human T cell; assay type: functional, organism-based
Homo sapiens [2] = species: Homo sapiens; test: Immunosuppressive activity in human B cell; assay type: functional, organism-based
[3] = Antiviral activity against Gomphrena mosaic virus relative to control; assay type: functional, Gomphrena mosiac virus; design: concentration or dose not given beside the values
CCRF-CEM = test: Anticancer activity against human CCRF-CEM cell assessed as cell growth inhibition measured after 120 hrs; assay type: functional, cell-based
WIL2 = test: Anticancer activity against human WIL2 cell assessed as cell growth inhibition measured after 120 hrs; assay type: functional, cell-based; conditions: WIL2, 120 h
[4] = test system: Human immunodeficiency virus 1; test: Antiviral activity against HIV-1 infected in human MT4 cells assessed as protection against virus-induced cytotoxicity relative to control; assay type: functional; design: concentration or dose not given beside the values
[5] = test system: Human immunodeficiency virus 2; test: Antiviral activity against HIV-2 infected in human MT4 cells assessed as protection against virus-induced cytotoxicity relative to control; assay type: functional; design: concentration or dose not given beside the values
[6] = CNS toxicity in po dosed mouse assessed as depression in CNS; assay type: organism-based; conditions: in vivo
Canis familiaris = test: Antiplatelet activity in iv dosed dog assessed as platelet aggregation; assay type: functional, organism-based; conditions: Canis lupus familiaris
Mus musculus [7] = test: Analgesic activity in […] albino mouse at 20 mg/kg, po measured after 2 hrs by Tail-Flick technique relative to control; assay type: functional
Mus musculus [8] = species: Mus musculus; test: Sedative hypnotic activity in mouse; assay type: functional; design: concentration or dose not given beside the values
Mus musculus [9] = test: Anticonvulsant activity in ip dosed mouse assessed as reduction in clonus phase; assay type: functional
Rattus norvegicus = test: Antiinflammatory activity in rat at assessed as reduction in paw edema at 200 mg/kg relative to control; assay type: functional
Mus musculus [10] = test: Anticonvulsant activity in ip dosed mouse assessed as reduction in tonus phase; assay type: functional
Escherichia coli = test: Antibacterial activity against Escherichia coli assessed as zone of inhibition at 100 ppm; assay type: functional; conditions: read-out: IZ
Staphylococcus aureus = test: Antibacterial activity against Staphylococcus aureus assessed as zone of inhibition at 100 ppm; assay type: functional; conditions: read-out: IZ

Nc1nc(N)c2c(CCCc3ccc(C(=O)N[C@@H](C[C@@H](F)C(=O)O)C(=O)O)cc3)c[nH]c2n1
IC50 (Homo sapiens [1]): 1410 nM | IC50 (Homo sapiens [2]): 2930 nM

CC(/N=N/n1cnc2ccccc2c1=O)=N\Nc1ccc(C)cc1
Activity [3]: 15%

COC(=O)CCC(NC(=O)c1ccc(N(C)Cc2ccc3nc(C)[nH]c(=O)c3c2)s1)C(=O)OC (centres undefined)
IC50 (CCRF-CEM): 2100 nM | IC50 (WIL2): 1800 nM

O=c1c2ccccc2nc(S)n1NCn1cnc2ccccc21
Activity [4]: 25% | Activity [5]: 27%

CC(=O)Nc1ccc2nc(CF)n(-c3ccccc3CO)c(=O)c2c1
LD50 [6]: > 1000 mg/kg

C#CCN(Cc1ccc2nc(C)[nH]c(=O)c2c1)c1ccc(C(=O)N[C@@H](C[C@H](F)C(=O)O)C(=O)O)cc1
IC50 (Homo sapiens [1]): 5.67 nM | IC50 (Homo sapiens [2]): 8.08 nM

CCCCS(=O)(=O)NC(CC#Cc1ccc2[nH]c(=O)n(CCC3CCNCC3)c(=O)c2c1)C(=O)O (centres undefined)
IC50 (Canis familiaris): 210 nM

O=C([O-])Cc1ccccc1Nc1c(Cl)cccc1Cl.[Na+] [DICLOFENAC SODIUM]
Activity (Mus musculus [7]): 60%

Cc1cccc(-n2c(=O)c3ccccc3n3c(CCl)nnc23)c1
Activity (Mus musculus [8]): 4%

COC(=O)CCC(NC(=O)c1ccc(NCc2ccc3nc(N)[nH]c(=O)c3c2Cl)s1)C(=O)OC (centres undefined)
IC50 (CCRF-CEM): 2100 nM | IC50 (WIL2): 1800 nM

C#CCN(Cc1ccc2nc(C)[nH]c(=O)c2c1)c1ccc(C(=O)N[C@@H](C[C@@H](F)C(=O)O)C(=O)O)cc1
IC50 (Homo sapiens [1]): 5.67 nM | IC50 (Homo sapiens [2]): 8.08 nM

CCCCS(=O)(=O)NC(CCCc1ccc2c(c1)c(=O)n(CCC1CCNCC1)c(=O)n2C)C(=O)O (centres undefined)
IC50 (Canis familiaris): 210 nM

Oc1nc(-c2ccc(Cl)cc2)nc2cc3c(cc12)OCO3
ED50 (Mus musculus [9]): 32.7 µmol/kg

O=C(O)c1cc(Br)ccc1-n1c(/C=C/c2ccc([N+](=O)[O-])cc2)nc2ccccc2c1=O
inhibition in vivo at 200 mg/kg (Rattus norvegicus): 62.2%

Cc1nc2ccccc2c(=O)n1NCN1CCOCC1
Activity [4]: 21% | Activity [5]: 25%

CCC(CC)=NNC1=Nc2ccccc2C(=O)C1c1ccc(OC)cc1 (centres undefined)
Activity (Mus musculus [7]): 64%

O=C(O)c1ccc(Cl)cc1-n1c(/C=C/c2ccc([N+](=O)[O-])cc2)nc2ccccc2c1=O
inhibition in vivo at 200 mg/kg (Rattus norvegicus): 62.2%

COc1ccc(N/N=C(C)/N=N/n2cnc3ccccc3c2=O)cc1
Activity [3]: 15%

Nc1nc2c(c(=O)[nH]1)C[C@@H](CCc1ccc(C(=O)N[C@@H](C[C@H](F)C(=O)O)C(=O)O)cc1)CN2
IC50 (Homo sapiens [1]): 2300 nM | IC50 (Homo sapiens [2]): 2930 nM

CCCCS(=O)(=O)NC(CCCc1ccc2c(c1)c(=O)n(CCC1CCNCC1)c(=O)n2Cc1ccccc1)C(=O)O (centres undefined)
IC50 (Canis familiaris): 210 nM

CC/C(C)=N/n1c(S)nc2sc3c(c2c1=O)CCCC3
Activity (Mus musculus [7]): 72%

CC(=O)Nc1ccc2nc(CSCC(NC(C)=O)C(=O)O)n(-c3ccccc3C)c(=O)c2c1 (centres undefined)
LD50 [6]: > 1000 mg/kg

O=c1c2ccccc2nc(S)n1NCNc1ccccc1
Activity [4]: 25% | Activity [5]: 27%

Nc1nc2c(c(=O)[nH]1)C[C@@H](CCc1ccc(C(=O)N[C@@H](C[C@@H](F)C(=O)O)C(=O)O)cc1)CN2
IC50 (Homo sapiens [1]): 2300 nM | IC50 (Homo sapiens [2]): 2930 nM

Nc1ccc(-c2nc(S)c3cc4c(cc3n2)OCO4)cc1
ED50 (Mus musculus [10]): 36.6 µmol/kg | ED50 (Mus musculus [9]): 68.3 µmol/kg

O=C(O)c1cc(Br)ccc1-n1c(/C=C/c2ccc(O)cc2)nc2ccccc2c1=O
inhibition in vivo at 200 mg/kg (Rattus norvegicus): 62.2%

CCCCc1nc2ccccc2c(=O)n1NC(=S)N1CCCC1
Activity (Mus musculus [7]): 73%

CC(/N=N/n1cnc2ccccc2c1=O)=N\Nc1ccccc1Cl
Activity [3]: 15%

O=C(O)c1ccc(Cl)cc1-n1c(/C=C/c2ccc(F)cc2)nc2ccccc2c1=O
inhibition in vivo at 200 mg/kg (Rattus norvegicus): 62.2%

CC(/N=N/n1cnc2ccccc2c1=O)=N\Nc1ccccc1
Activity [3]: 15%

CN(C)CCC(c1ccc(Cl)cc1)c1ccccn1 (centres undefined) [CHLORPHENIRAMINE]
Activity (Mus musculus [8]): 25%

O=C(CO)Nc1ccc2nc(CF)n(-c3ccccc3CO)c(=O)c2c1
LD50 [6]: > 1000 mg/kg

CCCCS(=O)(=O)NC(CCCc1ccc2[nH]c(=O)n(CCC3CCNCC3)c(=O)c2c1)C(=O)O (centres undefined)
IC50 (Canis familiaris): 210 nM

O=C(O)c1ccc(Cl)c(-n2c(/C=C/c3ccc(F)cc3)nc3ccccc3c2=O)c1
inhibition in vivo at 200 mg/kg (Rattus norvegicus): 62.2%

CCCCS(=O)(=O)NC(CNC(=O)c1ccc2[nH]c(=O)n(CCC3CCNCC3)c(=O)c2c1)C(=O)O (centres undefined)
IC50 (Canis familiaris): 210 nM

Cc1nc2ccc(Br)cc2c(=O)n1/N=C/c1cc(I)cc(I)c1O
zone of inhibition at 100 µg/mL (Escherichia coli): 14 mm | zone of inhibition at 100 µg/mL (Staphylococcus aureus): 16 mm

Cc1nc2ccccc2c(=O)n1NCN(C)C
Activity [4]: 21% | Activity [5]: 25%

Cc1nc2ccc(Br)cc2c(=O)n1/N=C/c1cc(Br)cc(Br)c1O
zone of inhibition at 100 µg/mL (Escherichia coli): 14 mm | zone of inhibition at 100 µg/mL (Staphylococcus aureus): 16 mm

Nc1nc(N)c2c(CCCc3ccc(C(=O)N[C@@H](C[C@H](F)C(=O)O)C(=O)O)cc3)c[nH]c2n1
IC50 (Homo sapiens [1]): 1410 nM | IC50 (Homo sapiens [2]): 2930 nM

CCN(CC)C(=S)Nn1c(-c2ccccc2)nc2ccccc2c1=O
Activity (Mus musculus [7]): 58%

COc1cc(/C=N/n2c(C)nc3ccc(Br)cc3c2=O)cc(I)c1O
zone of inhibition at 100 µg/mL (Escherichia coli): 14 mm | zone of inhibition at 100 µg/mL (Staphylococcus aureus): 16 mm

CCC(CC)=NNC1=Nc2ccccc2C(=O)C1c1ccccc1 (centres undefined)
Activity (Mus musculus [7]): 72%

Oc1nc(-c2ccc(F)cc2)nc2cc3c(cc12)OCO3
ED50 (Mus musculus [10]): 17.7 µmol/kg

CC(=O)Nc1ccc2nc(CF)n(-c3ccccc3C)c(=O)c2c1
LD50 [6]: > 1000 mg/kg

COc1cc(N/N=C(C)/N=N/n2cnc3ccccc3c2=O)ccc1O
Activity [3]: 15%

CC(/N=N/n1cnc2ccccc2c1=O)=N\Nc1ccc(O)cc1
Activity [3]: 15%

Cc1ccccc1-n1c(CF)nc2ccc(NC(=O)CO)cc2c1=O
LD50 [6]: > 1000 mg/kg

Cc1nc2ccc(I)cc2c(=O)n1/N=C/c1cc(Br)cc(Br)c1O
zone of inhibition at 100 µg/mL (Escherichia coli): 14 mm | zone of inhibition at 100 µg/mL (Staphylococcus aureus): 16 mm

CCc1nnc2n(-c3cccc(C)c3)c(=O)c3ccccc3n12
Activity (Mus musculus [8]): 4%

Cc1cccc(-n2c(=O)c3ccccc3n3cnnc23)c1
Activity (Mus musculus [8]): 4%

CCCCS(=O)(=O)NC(CCCc1ccc2c(c1)c(=O)n(CCC1CCNCC1)c(=O)n2Cc1ccncc1)C(=O)O (centres undefined)
IC50 (Canis familiaris): 210 nM

CC(=O)Nc1ccc2nc(C[S+](C)[O-])n(-c3ccccc3C)c(=O)c2c1 (centres undefined)
LD50 [6]: > 1000 mg/kg

CN(Cc1cnc2nc(N)nc(N)c2n1)c1ccc(C(=O)N[C@@H](CCC(=O)O)C(=O)O)cc1 [METHOTREXATE]
IC50 (Homo sapiens [1]): 13.4 nM | IC50 (Homo sapiens [2]): 27.5 nM

CCN(CC)C(=S)Nn1c(SC)nc2ccccc2c1=O
Activity (Mus musculus [7]): 67%

CCCc1nnc2n(-c3cccc(C)c3)c(=O)c3ccccc3n12
Activity (Mus musculus [8]): 4%

Nc1nc(O)c2c(Cl)c(CNc3ccc(C(=O)NC(CCC(=O)O)C(=O)O)cc3)ccc2n1 (centres undefined)
IC50 (CCRF-CEM): 1800 nM | IC50 (WIL2): 1800 nM

Cc1cccc(-n2c(=O)c3ccccc3n3c(C)nnc23)c1
Activity (Mus musculus [8]): 4%

Oc1nc(-c2ccc(Br)cc2)nc2cc3c(cc12)OCO3
ED50 (Mus musculus [10]): 27.8 µmol/kg | ED50 (Mus musculus [9]): 32.7 µmol/kg

Cc1nc2ccc(CN(C)c3ccc(C(=O)N[C@@H](C[C@@H](F)C(=O)O)C(=O)O)s3)cc2c(=O)[nH]1
IC50 (Homo sapiens [1]): 5.67 nM | IC50 (Homo sapiens [2]): 8.08 nM

Cc1nc2ccccc2c(=O)n1NC(=S)N1CCCC1
Activity (Mus musculus [7]): 65%

COc1ccc(/C=C/c2nc3ccccc3c(=O)n2-c2cc(C(=O)O)ccc2Cl)cc1
inhibition in vivo at 200 mg/kg (Rattus norvegicus): 62.2%

CC(=O)Nc1ccc2nc(CO)n(-c3ccccc3C)c(=O)c2c1
LD50 [6]: > 1000 mg/kg

CC(=O)Nc1ccc2nc(CS(C)(=O)=O)n(-c3ccccc3C)c(=O)c2c1
LD50 [6]: > 1000 mg/kg

Nc1ccc(-c2nc(O)c3cc4c(cc3n2)OCO4)cc1
ED50 (Mus musculus [10]): 21.6 µmol/kg | ED50 (Mus musculus [9]): 36.5 µmol/kg

CC(/N=N/n1cnc2ccccc2c1=O)=N\Nc1ccc(Cl)cc1
Activity [3]: 15%

O=c1c2ccccc2nc(S)n1NCNc1ccccn1
Activity [4]: 25% | Activity [5]: 27%
